Test results as given in PubChem BioAssay (NCI).
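In this assay, cells in 96-well plates receive the compound at five concentrations for 48 hours. Endpoints are linearly interpolated between the surrounding concentrations. GI50 = concentration required for 50% inhibition of growth. TGI: concentration producing complete growth inhibition.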

Columns and labels:
Test in all cases: DTP human tumour cell line panel, 48 h
HCT-15 colon = tested on: HCT-15 colon
SW-620 colon = tested on: SW-620 colon
RPMI-8226 leukemia = tested on: RPMI-8226 leukemia
786-0 renal = tested on: 786-0 renal
OVCAR-3 ovarian = tested on: OVCAR-3 ovarian
HCC-2998 colon = tested on: HCC-2998 colon
SK-OV-3 ovarian = tested on: SK-OV-3 ovarian
SK-MEL-5 melanoma = tested on: SK-MEL-5 melanoma
A549 NSCLC = tested on: A549 NSCLC
DU-145 prostate = tested on: DU-145 prostate
CAKI-1 renal = tested on: CAKI-1 renal

Compound | TGI (HCT-15 colon) [µM] | TGI (SW-620 colon) [µM] | TGI (RPMI-8226 leukemia) [µM] | TGI (786-0 renal) [µM] | TGI (OVCAR-3 ovarian) [µM] | TGI (HCC-2998 colon) [µM] | TGI (SK-OV-3 ovarian) [µM] | TGI (SK-MEL-5 melanoma) [µM] | TGI (A549 NSCLC) [µM] | TGI (DU-145 prostate) [µM] | TGI (CAKI-1 renal) [µM] | GI50 (HCC-2998 colon) [µM] | GI50 (CAKI-1 renal) [µM]
CCCCCCCC/C=C/CCCCCCCC1CC(O)C(=O)O1 (centres undefined) | > 100 | > 100 | 76.7 | > 100 | 95.7 | > 100 | > 100 | > 100 | > 100 | > 100 | – | – | –
COc1cc(/C=C(\C#N)c2ccccn2)cc(Br)c1O | > 100 | > 100 | > 100 | > 100 | > 100 | > 100 | > 100 | > 100 | > 100 | > 100 | > 100 | – | –
CC(C)(C)NC1C2CCC(C)(C1O)C2(C)C (centres undefined) | > 100 | > 100 | > 100 | > 100 | > 100 | > 100 | > 100 | > 100 | > 100 | > 100 | > 100 | – | –
CC1(C)C2CCC1(CC(=O)O)C(Cl)C2 (centres undefined) | > 100 | > 100 | > 100 | > 100 | > 100 | > 100 | > 100 | > 100 | > 100 | > 100 | > 100 | – | –
Cc1cccc(NC(=S)N/N=C(/c2ccccc2)c2ccccn2)c1 | 16.5 | 20.4 | > 7.74 | 14.6 | 11.9 | 19.7 | 14.1 | 7.18 | 14.3 | 9.34 | 12.7 | – | –
COC(Cc1ccccc1)NC(C)=O (centres undefined) | > 100 | > 100 | > 100 | > 100 | > 100 | > 100 | > 100 | > 100 | > 100 | > 100 | > 100 | – | –
CCOP(=O)(OCC)/C(C#N)=C/c1c(C)[nH]c2ccccc12 | > 100 | > 100 | > 100 | > 100 | > 100 | > 100 | > 100 | > 100 | > 100 | > 100 | > 100 | – | –
CC[C@]12C=CCN3CCC4(c5cc([C@@]6(C(=O)OC)CC7CN(CCc8c6[nH]c6ccccc86)C[C@@H]6CCC[C@H]76)c(OC)cc5N(C)C4[C@](O)(C(=O)OC)C1OC(C)=O)C32 (some centres undefined) | > 10 | > 4.07 | > 7.96 | > 10 | 0.337 | > 6.75 | > 2.54 | 0.181 | > 10 | 0.0749 | > 10 | – | –
CCN(CC)C1=Nc2ccccc2-n2c(C)cnc2C1 | > 100 | > 100 | > 100 | > 100 | > 100 | > 100 | > 100 | > 100 | > 100 | > 100 | > 100 | – | –
COC(=O)[C@@H]1C[C@]2(CC=C(C)C)c3ccccc3N(S(=O)(=O)c3ccccc3)[C@@H]2N1C(=O)OC | 55.8 | > 100 | 42.6 | > 100 | > 100 | 40.1 | > 100 | 26 | > 100 | > 100 | > 100 | – | –
CCn1cnc2c(NC(C)=O)ncnc21 | > 100 | > 100 | > 100 | > 100 | > 100 | > 100 | > 100 | > 100 | > 100 | > 100 | > 100 | – | –
CCCCCC(/C=N/N)C(O)(C(F)(F)F)C(F)(F)F (centres undefined) | 9.54 | > 10 | > 10 | > 10 | > 10 | > 10 | > 10 | 3.92 | > 10 | 6.09 | 6.02 | – | –
CP(C)(=S)P(C)(C)=S | > 100 | > 100 | > 100 | > 100 | – | > 100 | > 100 | > 100 | > 100 | > 100 | > 100 | – | –
CC1(C)O[C@@H]2[C@@H]3OC(=O)C[C@@H]3[C@@H](COCc3ccccc3)[C@@H]2O1 | > 100 | > 100 | > 100 | > 100 | > 100 | > 100 | > 100 | > 100 | > 100 | > 100 | > 100 | – | –
CCOC1SC(SC)=NN1C(=O)C(OC(C)=O)C(OC(C)=O)C(OC(C)=O)C(OC(C)=O)C(=O)N1N=C(SC)SC1OCC (centres undefined) | > 100 | > 100 | > 100 | > 100 | > 100 | > 100 | > 100 | > 100 | > 100 | > 100 | > 100 | – | –
c1ccc2c(c1)C(=Nc1ccc(N=C3c4ccccc4-c4ccccc43)cc1)c1ccccc1-2 | > 100 | > 100 | > 100 | > 100 | > 100 | > 100 | > 100 | > 100 | > 100 | > 100 | > 100 | – | –
O=C1C[C@H]2[C@H](c3ccc(Br)cc3)[C@H]3C(=O)c4ccccc4NC(=O)[C@@H]3[C@@]2(O)c2ccccc2N1 | > 100 | > 100 | 62.4 | 99.2 | 37 | 30.3 | 78.8 | 62 | > 100 | > 100 | 28.3 | – | –
O=C(O)c1cc(Sc2ccc([N+](=O)[O-])c(C(=O)O)c2)ccc1[N+](=O)[O-] | > 100 | > 100 | > 100 | > 100 | > 100 | > 100 | > 100 | > 100 | > 100 | > 100 | > 100 | > 100 | > 100
[N-]=[N+]=NC1=C(c2ccccc2)C(=O)c2cccc3cccc1c23 | > 100 | > 100 | > 100 | 88.1 | > 100 | > 100 | > 100 | 18.1 | > 100 | > 100 | > 100 | – | –

Compound | TGI (HCT-15 colon) [µM] | TGI (SW-620 colon) [µM] | TGI (RPMI-8226 leukemia) [µM] | TGI (786-0 renal) [µM] | TGI (OVCAR-3 ovarian) [µM] | TGI (HCC-2998 colon) [µM] | TGI (SK-OV-3 ovarian) [µM] | TGI (SK-MEL-5 melanoma) [µM] | TGI (A549 NSCLC) [µM] | TGI (DU-145 prostate) [µM] | TGI (CAKI-1 renal) [µM] | GI50 (HCC-2998 colon) [µM] | GI50 (CAKI-1 renal) [µM]
CC(NC(=O)C(N)CC(=O)O)NC(=O)N1CCCC1 (centres undefined) | > 100 | > 100 | > 100 | > 100 | > 100 | > 100 | > 100 | > 100 | > 100 | > 100 | > 100 | – | –
Cn1cnc([N+](=O)[O-])c1Sc1nc(N)nc2c1ncn2Cc1ccccc1 | 45.8 | 78.2 | 72.5 | 68.2 | 9.97 | 29.4 | 57 | 41.2 | 84.8 | > 100 | 31.1 | – | –
CCCCCCCCCCCCP(=O)(O)OCC(N)C(=O)O (centres undefined) | 41.3 | > 100 | 91.9 | > 100 | 36.5 | > 100 | 73.3 | > 100 | > 100 | > 100 | > 100 | – | –
COc1c(O)cc(C(=O)O[C@@H]2Cc3c(O)cc(O)cc3O[C@@H]2c2cc(O)c(O)c(O)c2)cc1O | 86.2 | 59.8 | 57.7 | 33.8 | > 100 | > 100 | > 100 | 44.3 | 51.2 | 46.7 | > 100 | – | –
COc1cc(OC)nc(Nc2c(C#N)c3nc4ccccc4n3c3ccccc23)n1 | > 100 | > 100 | > 100 | 43.6 | > 100 | > 100 | > 100 | > 100 | > 100 | > 100 | > 100 | – | –
COC1(C)C=NCC(C)(C)NC(=O)C(C)(OC)C=NCC(C)(C)NC1=O (centres undefined) | > 10 | > 10 | > 10 | > 10 | – | > 10 | > 10 | > 10 | > 10 | > 10 | > 10 | – | –
CC1(C)OC(=S)N(c2ccccc2)C12C=Cc1cc3ccccc3cc1O2 (centres undefined) | > 100 | > 100 | > 100 | > 100 | > 100 | > 100 | > 100 | > 100 | > 100 | > 100 | > 100 | – | –
COc1cccc(-n2c(N)c(-c3nc4cc(C(F)(F)F)ccc4s3)c3ccc([N+](=O)[O-])cc3c2=O)c1 | > 100 | – | > 100 | > 100 | > 100 | > 100 | > 100 | > 100 | > 100 | > 100 | > 100 | – | –
CCNc1ncnc2n[nH]nc12 | > 100 | > 100 | > 100 | > 100 | > 100 | > 100 | > 100 | > 100 | > 100 | > 100 | > 100 | – | –
O=C1O[C@H]2[C@@H]3OC(=O)c4cc(O)c(O)c(O)c4-c4c(cc(O)c(O)c4O)C(=O)OC[C@H]2O[C@@H](OC(=O)c2cc(O)c(O)c(O)c2)[C@@H]3OC(=O)c2cc(O)c(O)c3c2[C@@H]2C1=CC(=O)C(O)(O)C2(O)O3 (some centres undefined) | > 100 | 38.5 | > 100 | 39.8 | > 100 | > 100 | > 100 | > 100 | > 100 | > 100 | 27.5 | – | –
CCOP(C)(=O)C(Nc1ccc(F)cc1)c1ccc(F)cc1 (centres undefined) | > 100 | > 100 | > 100 | > 100 | > 100 | > 100 | > 100 | > 100 | > 100 | > 100 | > 100 | – | –
N=c1oc2c(Cl)cc(Cl)cc2cc1C(=O)Nc1ccccn1 | > 100 | > 100 | 60.8 | > 100 | 57.5 | > 100 | > 100 | > 100 | > 100 | > 100 | > 100 | – | –
CC(C)=CCC[C@H](C)[C@H]1CC[C@@H](C)c2cc(O)c(C)cc21 | 35.1 | 56.6 | 56.2 | 33.3 | 35.3 | 33.7 | 35.4 | 30.4 | 32.6 | 37.9 | 31.9 | – | –
CCN(CC)c1nc(N(C)C)c2cc(OC)ccc2n1 | > 100 | > 100 | 61.2 | 86.2 | > 100 | 46.4 | – | 34.2 | > 100 | > 100 | > 100 | – | –
Cc1cc(-c2nc3cc(F)c(F)cc3s2)ccc1N | > 100 | > 100 | > 100 | > 100 | > 100 | > 100 | > 100 | > 100 | > 100 | > 100 | > 100 | – | –
O=C1NN(c2ccccc2)C(=O)C2C3c4ccccc4C(c4ccccc43)C12 (centres undefined) | > 100 | > 100 | > 100 | > 100 | > 100 | > 100 | > 100 | > 100 | > 100 | > 100 | > 100 | – | –
Cc1cc(C#N)c(Nc2c(C)cccc2[N+](=O)[O-])s1 | > 100 | > 100 | > 100 | 89.9 | > 100 | > 100 | > 100 | – | > 100 | > 100 | > 100 | – | –
CC1(C)CC[C@]2(C(=O)O)CC[C@]3(C)C(=CC[C@@H]4[C@@]5(C)CC[C@H](OC6OC(CO)C(O)C(O)C6OC6OC(CO)C(O)C(O)C6O)C(C)(C)[C@@H]5CC[C@]43C)[C@@H]2C1 (some centres undefined) | 35.3 | 48.3 | 62.3 | 30.1 | 29.9 | 36.2 | 31.9 | 33.7 | 33.7 | 31.4 | 35.4 | – | –
O=C1OC(c2ccccc2)N/C1=C\c1ccc2c(c1)OCO2 (centres undefined) | > 100 | > 100 | 59.9 | > 100 | > 100 | > 100 | > 100 | > 100 | > 100 | > 100 | > 100 | – | –
